Source: BigSolDB 2.1

## O=C(Nc1ccccc1-c1ccc(Cl)cc1)c1cccnc1Cl
In ethanol, 288.15 K
  solubility (mole fraction): 0.00163
In ethanol, 293.15 K
  solubility (mole fraction): 0.00194
In ethanol, 298.15 K
  solubility (mole fraction): 0.0023
In ethanol, 303.15 K
  solubility (mole fraction): 0.00282
In ethanol, 308.15 K
  solubility (mole fraction): 0.00346
In ethanol, 313.15 K
  solubility (mole fraction): 0.00428
In ethyl acetate, 288.15 K
  solubility (mole fraction): 0.0076
In ethyl acetate, 293.15 K
  solubility (mole fraction): 0.00879
In ethyl acetate, 298.15 K
  solubility (mole fraction): 0.0102
In ethyl acetate, 303.15 K
  solubility (mole fraction): 0.0117
In ethyl acetate, 308.15 K
  solubility (mole fraction): 0.0141
In ethyl acetate, 313.15 K
  solubility (mole fraction): 0.0168
In isopropanol, 288.15 K
  solubility (mole fraction): 0.000816
In isopropanol, 293.15 K
  solubility (mole fraction): 0.000983
In isopropanol, 298.15 K
  solubility (mole fraction): 0.00124
In isopropanol, 303.15 K
  solubility (mole fraction): 0.00162
In isopropanol, 308.15 K
  solubility (mole fraction): 0.002
In isopropanol, 313.15 K
  solubility (mole fraction): 0.00251
In methanol, 288.15 K
  solubility (mole fraction): 0.00186
In methanol, 293.15 K
  solubility (mole fraction): 0.0022
In methanol, 298.15 K
  solubility (mole fraction): 0.0026
In methanol, 303.15 K
  solubility (mole fraction): 0.00315
In methanol, 308.15 K
  solubility (mole fraction): 0.00394
In methanol, 313.15 K
  solubility (mole fraction): 0.0047
In n-propyl acetate, 288.15 K
  solubility (mole fraction): 0.00718
In n-propyl acetate, 293.15 K
  solubility (mole fraction): 0.00822
In n-propyl acetate, 298.15 K
  solubility (mole fraction): 0.00943
In n-propyl acetate, 303.15 K
  solubility (mole fraction): 0.0112
In n-propyl acetate, 308.15 K
  solubility (mole fraction): 0.0135
In n-propyl acetate, 313.15 K
  solubility (mole fraction): 0.016
